Earlier results on eight molecules are cited in PubChem BioAssay AID1259409 (Chemical Carcinogenesis Research Information System (CCRIS), 2018).

The test system of this data set is rodent chemically induced tumor inhibition, incidence and multiplicity. In words: CCRIS tumor inhibitor studies.

As to `CC(C)CCC[C@@H](C)[C@H]1CC[C@H]2[C@@H]3CC=C4C[C@@H](OS(=O)(=O)O)CC[C@]4(C)[C@H]3CC[C@]12C`, the “tumour outcome (control, treated, inhibition, significance)” value (Carcinogen: 7,12-DIMETHYLBENZ[A]ANTHRACENE, 57-97-6, Dose [Inhibitor]: 0, 400 UG IN 0.2 ML METHANOL:ACETONE (1:4) APPLIED 10 MIN PRIOR TO EACH PROMOTER DOSE FOR 20 WK (STUDY DURATION: 20 WK), Route [Inhibitor]: DERMAL, Species: MOUSE, Strain/Sex: CD-1/FEMALE, Target Tissue: Type of Lesion: SKIN: TUMOR, Dose [Carcinogen]: 100 UG ONCE, Promoter: 12-O-TETRADECANOYLPHORBOL-13-ACETATE, 16561-29-8, MEZEREIN, 34807-41-5, Promoter: 12-O-TETRADECANOYLPHORBOL-13-ACETATE, 16561-29-8, MEZEREIN, 34807-41-5) was 90%, 40%, 56%, not calculated.
In the case of `CC[C@H]1OC(=O)[C@H](C)[C@@H](O[C@H]2C[C@@](C)(OC)[C@@H](O)[C@H](C)O2)[C@H](C)[C@@H](O[C@@H]2O[C@H](C)C[C@H](N(C)C)[C@H]2O)[C@](C)(OC)C[C@@H](C)C(=O)[C@H](C)[C@@H](O)[C@]1(C)O`, the “tumour outcome (control, treated, inhibition, significance)” value is, setting by setting: (Carcinogen: N-NITROSOBIS(2-HYDROXYPROPYL)AMINE, 53609-64-6, Dose [Inhibitor]: 0, 0.02% IN DIET FOR 8 WK BEGINNING POST CARCINOGEN TREATMENT (STUDY DURATION: 20 WK), Route [Inhibitor]: ORAL, Species: RAT, Strain/Sex: WISTAR/MALE, Target Tissue: Type of Lesion: LUNG: ADENOCARCINOMA, Dose [Carcinogen]: 2,000 PPM IN DRINKING WATER FOR 12 WK, Promoter: NONE) 60%, 38%, 37%, not calculated; (Carcinogen: N-NITROSOBIS(2-HYDROXYPROPYL)AMINE, 53609-64-6, Dose [Inhibitor]: 0, 0.02% IN DIET FOR 8 WK BEGINNING POST CARCINOGEN TREATMENT (STUDY DURATION: 20 WK), Route [Inhibitor]: ORAL, Species: RAT, Strain/Sex: WISTAR/MALE, Target Tissue: Type of Lesion: LUNG: ADENOMA, Dose [Carcinogen]: 2,000 PPM IN DRINKING WATER FOR 12 WK, Promoter: NONE) 70%, 50%, 29%, not calculated; (Carcinogen: N-NITROSOBIS(2-HYDROXYPROPYL)AMINE, 53609-64-6, Dose [Inhibitor]: 0, 0.02% IN DIET FOR 8 WK BEGINNING POST CARCINOGEN TREATMENT (STUDY DURATION: 20 WK), Route [Inhibitor]: ORAL, Species: RAT, Strain/Sex: WISTAR/MALE, Target Tissue: Type of Lesion: LUNG: SQUAMOUS CELL CARCINOMA, Dose [Carcinogen]: 2,000 PPM IN DRINKING WATER FOR 12 WK, Promoter: NONE) 20%, 13%, 35%, not calculated.
`S=C=NCCCCCCCCc1ccccc1`: the “tumour outcome (control, treated, inhibition, significance)” value by setting is: (Carcinogen: 4-(METHYLNITROSAMINO)-1-(3-PYRIDYL)-1-BUTANONE, 64091-91-4, Dose [Inhibitor]: 0, 0.04 UMOL ONCE 2 HR PRIOR TO CARCINOGEN DOSE (STUDY DURATION: 16 WK), Route [Inhibitor]: GAVAGE, Species: MOUSE, Strain/Sex: STRAIN-A/FEMALE, Target Tissue: Type of Lesion: LUNG: ADENOMA, Dose [Carcinogen]: 10 UMOL IN 0.1 ML SALINE ONCE, Promoter: NONE USED) 100%, 100%, 0%, not significant; (Carcinogen: 4-(METHYLNITROSAMINO)-1-(3-PYRIDYL)-1-BUTANONE, 64091-91-4, Dose [Inhibitor]: 0, 0.1 UMOL ONCE 2 HR PRIOR TO CARCINOGEN DOSE (STUDY DURATION: 16 WK), Route [Inhibitor]: GAVAGE, Species: MOUSE, Strain/Sex: STRAIN-A/FEMALE, Target Tissue: Type of Lesion: LUNG: ADENOMA, Dose [Carcinogen]: 10 UMOL IN 0.1 ML SALINE ONCE, Promoter: NONE USED) 100%, 100%, 0%, not significant; (Carcinogen: 4-(METHYLNITROSAMINO)-1-(3-PYRIDYL)-1-BUTANONE, 64091-91-4, Dose [Inhibitor]: 0, 0.2 UMOL ONCE 2 HR PRIOR TO CARCINOGEN DOSE (STUDY DURATION: 16 WK), Route [Inhibitor]: GAVAGE, Species: MOUSE, Strain/Sex: STRAIN-A/FEMALE, Target Tissue: Type of Lesion: LUNG: ADENOMA, Dose [Carcinogen]: 10 UMOL IN 0.1 ML SALINE ONCE, Promoter: NONE USED) 100%, 90%, 10%, p<0.05.
Regarding `CC1(C)[C@H](O)CC[C@]2(C)C3=CC[C@@]4(C)[C@@H]5C[C@](C)(CO)CC[C@]5(C)CC[C@]4(C)C3=CC[C@@H]12`, the “tumour outcome (control, treated, inhibition, significance)” value (Carcinogen: 7,12-DIMETHYLBENZ[A]ANTHRACENE, 57-97-6, Dose [Inhibitor]: 0, 2 UMOL IN 100 µL ACETONE:DMSO (9:1) 2/WK FOR 17 WK APPLIED 30 MIN PRIOR TO EACH PROMOTER DOSE (STUDY DURATION: 18 WK), Route [Inhibitor]: DERMAL, Species: MOUSE, Strain/Sex: ICR/FEMALE, Target Tissue: Type of Lesion: SKIN: PAPILLOMA, Dose [Carcinogen]: 50 UG IN 100 µL ACETONE ONCE, Promoter: 12-O-TETRADECANOYLPHORBOL-13-ACETATE, 16561-29-8) is 87%, 13%, 85%, not calculated.
With `NC(Cc1c[nH]c2ccccc12)C(=O)O` (stereo not given), the “tumour outcome (control, treated, inhibition, significance)” value (Carcinogen: N-BUTYL-N-(4-HYDROXYBUTYL)NITROSAMINE, 3817-11-6, Dose [Inhibitor]: 5% DIET DAILY FOR 34 WK STARTING AT COMPLETION OF CARCINOGEN TREATMENT (STUDY DURATION: 38 WK), Route [Inhibitor]: ORAL, Species: RAT, Strain/Sex: F344/MALE, Target Tissue: Type of Lesion: URINARY BLADDER: PAPILLOMA, Dose [Carcinogen]: 0.01% IN DRINKING WATER FOR 4 WK, Promoter: NONE USED) is recorded as 33%, 27%, 18%, not significant.
In the case of `c1c[nH]cn1`, the “tumour outcome (control, treated, inhibition, significance)” value (Carcinogen: N-METHYL-N-NITROSOUREA, 684-93-5, Dose [Inhibitor]: 1000 MG/KG OF LOW (3%) FAT DIET BEGINNING 1 WK POST CARCINOGEN DOSE AND CONTINUING FOR DURATION OF STUDY (STUDY DURATION, Route [Inhibitor]: ORAL, Species: RAT, Strain/Sex: SPRAGUE-DAWLEY/FEMALE, Target Tissue: Type of Lesion: MAMMARY GLAND: TUMOR, Dose [Carcinogen]: 40 MG/KG ONCE, Promoter: NONE USED) is 78%, 92%, -18%, not calculated.
Consider `O=C(CCCN1CCC(O)(c2ccc(Cl)cc2)CC1)c1ccc(F)cc1`, for which the “tumour outcome (control, treated, inhibition, significance)” value (Carcinogen: AZOXYMETHANE, 25843-45-2, Dose [Inhibitor]: 0, 2 MG/KG BW SUSPENDED IN 1 ML/MG OLIVE OIL 1/2 D FOR STUDY DURATION (STUDY DURATION: 30 WK), Route [Inhibitor]: SUBCUTANEOUS, Species: RAT, Strain/Sex: WISTAR/MALE, Target Tissue: Type of Lesion: COLON: TUMOR, Dose [Carcinogen]: 7.4 MG/KG IN 0.9% SALINE 1/WK FOR 10 WK) is recorded as 9/17 (53%), 3/19 (16%), 70%, p<0.05.
Take `COc1cc2c(cc1OC)[C@@H]1C(=O)c3ccc4c(c3O[C@@H]1CO2)C=CC(C)(C)O4`: the “tumour outcome (control, treated, inhibition, significance)” value is, setting by setting: (Carcinogen: 7,12-DIMETHYLBENZ[A]ANTHRACENE, 57-97-6, Dose [Inhibitor]: 0, 33 UG 2/WK FOR 15 WK APPLIED 1 HR PRIOR TO EACH PROMOTER DOSE (STUDY DURATION: 15 WK), Route [Inhibitor]: DERMAL, Species: MOUSE, Strain/Sex: CD-1/FEMALE, Target Tissue: Type of Lesion: SKIN: TUMOR, Dose [Carcinogen]: 100 UG ONCE, Promoter: 12-O-TETRADECANOYLPHORBOL-13-ACETATE, 16561-29-8) 60%, 10%, 83%, p<0.05; (Carcinogen: 7,12-DIMETHYLBENZ[A]ANTHRACENE, 57-97-6, Dose [Inhibitor]: 0, 330 UG 2/WK FOR 15 WK APPLIED 1 HR PRIOR TO EACH PROMOTER DOSE (STUDY DURATION: 15 WK), Route [Inhibitor]: DERMAL, Species: MOUSE, Strain/Sex: CD-1/FEMALE, Target Tissue: Type of Lesion: SKIN: TUMOR, Dose [Carcinogen]: 100 UG ONCE, Promoter: 12-O-TETRADECANOYLPHORBOL-13-ACETATE, 16561-29-8) 60%, 0%, 100%, p<0.05; (Carcinogen: N-METHYL-N-NITROSOUREA, 684-93-5, Dose [Inhibitor]: 0, 2 MG/KG BW 5 D/WK FOR DURATION OF STUDY BEGINNING 2 WK PRIOR TO CARCINOGEN DOSE (STUDY DURATION: 194 D), Route [Inhibitor]: GAVAGE, Species: RAT, Strain/Sex: SPRAGUE-DAWLEY/FEMALE, Target Tissue: Type of Lesion: MAMMARY GLAND: ADENOCARCINOMA, Dose [Carcinogen]: 50 MG/KG BW ONCE, Promoter: NONE USED) 100%, 100%, 0%, not significant; (Carcinogen: N-METHYL-N-NITROSOUREA, 684-93-5, Dose [Inhibitor]: 0, 4 MG/KG BW 5 D/WK FOR DURATION OF STUDY BEGINNING 2 WK PRIOR TO CARCINOGEN DOSE (STUDY DURATION: 194 D), Route [Inhibitor]: GAVAGE, Species: RAT, Strain/Sex: SPRAGUE-DAWLEY/FEMALE, Target Tissue: Type of Lesion: MAMMARY GLAND: ADENOCARCINOMA, Dose [Carcinogen]: 50 MG/KG BW ONCE, Promoter: NONE USED) 100%, 100%, 0%, not significant.
